Starred links: 1 amine or outer side, 2 acyl side, 3 side chain; linkers in the order of their positions; H or OH if unused. Positions of bridges follow the written chain, without caps; N, C: chain ends. Non-standard residues stand in square brackets, D forms with d. Residues, ends and D or L forms follow the SMILES beside them. *: point of attachment. hPhe(3-Cl-4-CF3) = N[C@@H](CCc1ccc(C(F)(F)F)c(Cl)c1)C(=O)O; hPhe(3-F,4-CF3) = N[C@@H](CCc1ccc(C(F)(F)F)c(F)c1)C(=O)O; Pro(cis-4-Ph) = O=C(O)[C@@H]1C[C@H](c2ccccc2)CN1; 3Oxa8azabicyclo(3.2.1)octane = C1CC2COCC1N2*; NMePhe(4-Cl) = CN[C@@H](Cc1ccc(Cl)cc1)C(=O)O; NMePhe(4-Me) = CN[C@@H](Cc1ccc(C)cc1)C(=O)O; NMePhe(4-I) = CN[C@@H](Cc1ccc(I)cc1)C(=O)O; hPhe(4-Cl) = N[C@@H](CCc1ccc(Cl)cc1)C(=O)O; NMedβ3hAla = C[C@H](CC(=O)[*:2])N(C)[*:1]; NMeAla(cPent) = CN[C@@H](CC1CCCC1)C(=O)O; NMeGly(cPent) = CN[C@H](C(=O)O)C1CCCC1; NMe3Pal = CN[C@@H](Cc1cccnc1)C(=O)O; NMeGly(cBu) = CN[C@H](C(=O)O)C1CCC1; NMeCha = CN[C@@H](CC1CCCCC1)C(=O)O; NMeChg = CN[C@H](C(=O)O)C1CCCCC1; NMeI = CC[C@H](C)[C@H](NC)C(=O)O; NMeT = CN[C@H](C(=O)O)[C@@H](C)O; NMeD = CN[C@@H](CC(=O)O)C(=O)O; NMeHpra = C#CCC[C@H](NC)C(=O)O; NMeL = CN[C@@H](CC(C)C)C(=O)O; NEtAla = CCN[C@@H](C)C(=O)O; NMeNva = CCC[C@H](NC)C(=O)O; NMeV = CN[C@H](C(=O)O)C(C)C; d(β3hA) = C[C@@H](N)CC(=O)O; Azetidin(1-yl) = C1CN(*)C1; NMeS = CN[C@@H](CO)C(=O)O; NMeA = CN[C@@H](C)C(=O)O; Piperidide = C1CCN(*)CC1; Pyrrolidide = C1CCN(*)C1; Ac5c = NC1(C(=O)O)CCCC1; Aze = O=C(O)[C@@H]1CCN1; Sar = CNCC(=O)O; Propyl = CCC*
Tested on: Human pancreatic cancer cell line AsPC-1
Assay: Measurement of AsPC-1 cell growth inhibition (AsPC-1 CGI)
Format: cell-based
Conditions: 96 h
How it was run: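 AsPC-1 cells in 15% FBS RPMI-1640 were exposed to test compound for 96 hours at 37° C, with CellTiter-Glo as endpoint.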

Row | Compound | IC50 [nM]
1 | CC[C@H](C)[C@@H]1NC(=O)[C@H](CC(C)C)N(C)C(=O)C[C@@H](C)N(C)C(=O)[C@H]([C@@H](C)CC)N(C)C(=O)C2(CCCC2)NC(=O)[C@@H]2CCCN2C(=O)[C@H](CCc2ccc(C(F)(F)F)c(F)c2)NC(=O)CN(C)C(=O)[C@H](C2CCCC2)N(C)C(=O)[C@@H]2CCN2C(=O)[C@H](C)N(C)C1=O [Compound 909] (cyclo([Ac5c][NMeI][NMedβ3hAla][NMeL]I[NMeA][Aze][NMeGly(cPent)][Sar][hPhe(3-F,4-CF3)]P)) | 50 to 100
2 | CC[C@H](C)[C@@H]1NC(=O)[C@H](CC(C)C)N(C)C(=O)C[C@@H](C(=O)N2CCCCC2)N(C)C(=O)[C@H](C(C)C)N(C)C(=O)C2(CCCC2)NC(=O)[C@@H]2CCCN2C(=O)[C@H](CCc2ccc(Cl)cc2)NC(=O)CN(C)C(=O)[C@H](CC2CCCCC2)N(C)C(=O)[C@@H]2CCN2C(=O)CN(C)C1=O [Compound 916] ([NMeL]I[Sar][Aze][NMeCha][Sar][hPhe(4-Cl)]P[Ac5c][NMeV][NMeD]-Piperidide; lactam N-11) | 100 to 500
3 | CC[C@H](C)[C@@H]1NC(=O)[C@H](CC(C)C)N(C)C(=O)C[C@@H](C(=O)N2CCCC2)N(C)C(=O)[C@H](C2CCCC2)N(C)C(=O)C2(CCCC2)NC(=O)[C@@H]2CCCN2C(=O)[C@H](CCc2ccc(C(F)(F)F)c(F)c2)NC(=O)CN(C)C(=O)[C@H](C2CCCC2)N(C)C(=O)[C@@H]2CCN2C(=O)[C@H](C)N(C)C1=O [Compound 918] ([NMeL]I[NMeA][Aze][NMeGly(cPent)][Sar][hPhe(3-F,4-CF3)]P[Ac5c][NMeGly(cPent)][NMeD]-Pyrrolidide; lactam N-11) | 20 to 50
4 | CC[C@H](C)[C@@H]1NC(=O)[C@H](CC2CCCC2)N(C)C(=O)C[C@@H](C(=O)N2CCC2)N(C)C(=O)[C@H](C2CCCC2)N(C)C(=O)C2(CCCC2)NC(=O)[C@@H]2CCCN2C(=O)[C@H](CCc2ccc(C(F)(F)F)c(Cl)c2)NC(=O)CN(C)C(=O)[C@H](CC2CCCCC2)N(C)C(=O)[C@@H]2CCN2C(=O)[C@H](C)NC1=O [Compound 921] ([NMeAla(cPent)]IA[Aze][NMeCha][Sar][hPhe(3-Cl-4-CF3)]P[Ac5c][NMeGly(cPent)][NMeD]-{Azetidin(1-yl)}; lactam N-11) | 20 to 50
5 | CC[C@H](C)[C@@H]1NC(=O)[C@H](CC(C)C)N(C)C(=O)C[C@@H](C(=O)N2CCCCC2)N(C)C(=O)[C@H](C(C)C)N(C)C(=O)C2(CCCC2)NC(=O)[C@@H]2CCCN2C(=O)[C@H](CCc2ccc(C(F)(F)F)c(Cl)c2)NC(=O)CN(C)C(=O)[C@H]([C@@H](C)OC)N(C)C(=O)[C@@H]2CCN2C(=O)[C@H](C)N(C)C1=O [Compound 929] ([NMeL]I[NMeA][Aze][NMeT](Me)[Sar][hPhe(3-Cl-4-CF3)]P[Ac5c][NMeV][NMeD]-Piperidide; lactam N-11) | 100 to 500
6 | CC[C@H](C)[C@@H]1NC(=O)[C@H](C2CCC2)N(C)C(=O)C[C@@H](C(=O)N2CCCCC2)N(C)C(=O)[C@H]([C@@H](C)CC)N(C)C(=O)C2(CCCC2)NC(=O)[C@@H]2CCCN2C(=O)[C@H](CCc2ccc(C(F)(F)F)c(Cl)c2)NC(=O)CN(C)C(=O)[C@H](CC2CCCCC2)N(C)C(=O)[C@@H]2CCN2C(=O)[C@H](C)N(C)C1=O [Compound 959] ([NMeGly(cBu)]I[NMeA][Aze][NMeCha][Sar][hPhe(3-Cl-4-CF3)]P[Ac5c][NMeI][NMeD]-Piperidide; lactam N-11) | 20 to 50
7 | CC[C@H](C)[C@@H]1NC(=O)[C@H](CC(C)C)N(C)C(=O)C[C@@H](C(=O)N2CCCCC2)N(C)C(=O)[C@H](C2CCCCC2)N(C)C(=O)C2(CCCC2)NC(=O)[C@@H]2C[C@H](c3ccccc3)CN2C(=O)[C@H](CCc2ccc(C(F)(F)F)c(Cl)c2)NC(=O)CN(C)C(=O)[C@H](CC2CCCCC2)N(C)C(=O)[C@@H]2CCN2C(=O)CN(C)C1=O [Compound 960] ([NMeL]I[Sar][Aze][NMeCha][Sar][hPhe(3-Cl-4-CF3)][Pro(cis-4-Ph)][Ac5c][NMeChg][NMeD]-Piperidide; lactam N-11) | 100 to 500
8 | C#CCC[C@H]1C(=O)N[C@@H]([C@@H](C)CC)C(=O)N(C)[C@@H](C)C(=O)N2CC[C@H]2C(=O)N(C)[C@@H](Cc2ccc(I)cc2)C(=O)N(C)CC(=O)N[C@@H](CCc2ccc(C(F)(F)F)c(Cl)c2)C(=O)N2CCC[C@H]2C(=O)NC2(CCCC2)C(=O)N(C)[C@@H](C2CCCCC2)C(=O)N(C)[C@H](C)CC(=O)N1C [Compound 961] (cyclo([Ac5c][NMeChg][NMedβ3hAla][NMeHpra]I[NMeA][Aze][NMePhe(4-I)][Sar][hPhe(3-Cl-4-CF3)]P)) | 100 to 500
9 | C#CCC[C@H]1C(=O)N[C@@H]([C@@H](C)CC)C(=O)N(C)[C@@H](C)C(=O)N2CC[C@H]2C(=O)N(C)[C@@H](Cc2ccc(I)cc2)C(=O)N(C)CC(=O)N[C@@H](CCc2ccc(C(F)(F)F)c(Cl)c2)C(=O)N2CCC[C@H]2C(=O)NC2(CCCC2)C(=O)N(C)[C@@H](C2CCCCC2)C(=O)N[C@H](C)CC(=O)N1C [Compound 971] (cyclo([Ac5c][NMeChg][d(β3hA)][NMeHpra]I[NMeA][Aze][NMePhe(4-I)][Sar][hPhe(3-Cl-4-CF3)]P)) | 100 to 500
10 | CCC[C@H]1C(=O)N(C)[C@H](C(=O)N2CCCCC2)CC(=O)N(C)[C@@H](CC(C)C)C(=O)N[C@@H]([C@@H](C)CC)C(=O)N(C)[C@@H](C)C(=O)N2CC[C@H]2C(=O)N(C)[C@@H](CC2CCCCC2)C(=O)N(C)CC(=O)N[C@@H](CCc2ccc(C(F)(F)F)c(Cl)c2)C(=O)N2CCC[C@H]2C(=O)NC2(CCCC2)C(=O)N1C [Compound 995] ([NMeL]I[NMeA][Aze][NMeCha][Sar][hPhe(3-Cl-4-CF3)]P[Ac5c][NMeNva][NMeD]-Piperidide; lactam N-11) | 100 to 500
11 | CC[C@H](C)[C@@H]1NC(=O)[C@H](CC(C)C)N(C)C(=O)C[C@@H](C(=O)N2C3CCC2COC3)N(C)C(=O)[C@H]([C@@H](C)CC)N(C)C(=O)C2(CCCC2)NC(=O)[C@@H]2CCCN2C(=O)[C@H](CCc2ccc(C(F)(F)F)c(Cl)c2)NC(=O)CN(C)C(=O)[C@H](C2CCCC2)N(C)C(=O)[C@@H]2CCN2C(=O)[C@H](C)N(C)C1=O [Compound 1002] ([NMeL]I[NMeA][Aze][NMeGly(cPent)][Sar][hPhe(3-Cl-4-CF3)]P[Ac5c][NMeI][NMeD]-{3Oxa8azabicyclo(3.2.1)octane}; lactam N-11) | 20 to 50
12 | CCC[C@H]1C(=O)NC2(CCCC2)C(=O)N(C)[C@@H](C2CCCCC2)C(=O)N(C)[C@H](C(=O)N2CCCCC2)CC(=O)N(C)[C@@H](CC(C)C)C(=O)N[C@@H]([C@@H](C)CC)C(=O)N(C)CC(=O)N(C)CC(=O)N(C)[C@@H](CC2CCCCC2)C(=O)N(C)CC(=O)N[C@@H](CCc2ccc(C(F)(F)F)c(Cl)c2)C(=O)N1C [Compound 1005] ([NMeL]I[Sar][Sar][NMeCha][Sar][hPhe(3-Cl-4-CF3)][NMeNva][Ac5c][NMeChg][NMeD]-Piperidide; lactam N-11) | 100 to 500
13 | CC[C@H](C)[C@@H]1NC(=O)[C@H](CC(C)C)N(C)C(=O)C[C@@H](C(=O)N2CCCCC2)N(C)C(=O)[C@H](C2CCCC2)N(C)C(=O)C2(CCCC2)NC(=O)[C@@H]2CCCN2C(=O)[C@H](CCc2ccc(C(F)(F)F)c(F)c2)NC(=O)CN(C)C(=O)[C@H](Cc2ccc(C)cc2)N(C)C(=O)[C@@H]2CCN2C(=O)[C@H](C)N(C)C1=O [Compound 1008] ([NMeL]I[NMeA][Aze][NMePhe(4-Me)][Sar][hPhe(3-F,4-CF3)]P[Ac5c][NMeGly(cPent)][NMeD]-Piperidide; lactam N-11) | 20 to 50
14 | CC[C@H](C)[C@@H]1NC(=O)[C@H](C)N(C)C(=O)C[C@@H](C(=O)N2CCCCC2)N(C)C(=O)[C@H](C2CCCCC2)N(C)C(=O)C2(CCCC2)NC(=O)[C@H](Cc2cccnc2)N(C)C(=O)[C@H](CCc2ccc(C(F)(F)F)c(Cl)c2)NC(=O)CN(C)C(=O)[C@H](CC2CCCCC2)N(C)C(=O)CN(C)C(=O)CN(C)C1=O [Compound 1012] ([NMeA]I[Sar][Sar][NMeCha][Sar][hPhe(3-Cl-4-CF3)][NMe3Pal][Ac5c][NMeChg][NMeD]-Piperidide; lactam N-11) | 100 to 500
15 | CC[C@H](C)[C@@H]1NC(=O)[C@H](C(C)C)N(C)C(=O)C[C@@H](C)NC(=O)[C@H](CC(C)C)N(C)C(=O)C2(CCCC2)NC(=O)[C@H](CC(C)C)N(C)C(=O)[C@H](CCc2ccc(C(F)(F)F)c(Cl)c2)NC(=O)CN(C)C(=O)[C@H](Cc2ccc(Cl)cc2)N(C)C(=O)CN(C)C(=O)CN(C)C1=O [Compound 1014] (cyclo([Ac5c][NMeL][d(β3hA)][NMeV]I[Sar][Sar][NMePhe(4-Cl)][Sar][hPhe(3-Cl-4-CF3)][NMeL])) | 100 to 500
16 | CC[C@H](C)[C@@H]1NC(=O)[C@H](CC(C)C)N(C)C(=O)C[C@@H](C)NC(=O)[C@H](C(C)C)N(C)C(=O)C2(CCCC2)NC(=O)[C@@H]2CCCN2C(=O)[C@H](CCc2ccc(C(F)(F)F)c(Cl)c2)NC(=O)CN(C)C(=O)[C@H](Cc2ccc(Cl)cc2)N(C)C(=O)[C@@H]2CCN2C(=O)[C@H](C)N(C)C1=O [Compound 1018] (cyclo([Ac5c][NMeV][d(β3hA)][NMeL]I[NMeA][Aze][NMePhe(4-Cl)][Sar][hPhe(3-Cl-4-CF3)]P)) | 100 to 500
17 | CC[C@H](C)[C@@H]1NC(=O)[C@H](CC(C)C)N(C)C(=O)C[C@@H](C)NC(=O)[C@H](C2CCCC2)N(C)C(=O)C2(CCCC2)NC(=O)[C@@H]2CCCN2C(=O)[C@H](CCc2ccc(C(F)(F)F)c(Cl)c2)NC(=O)CN(C)C(=O)[C@H](Cc2ccc(C)cc2)N(C)C(=O)[C@@H]2CCN2C(=O)[C@H](C)N(CC)C1=O [Compound 1023] (cyclo([Ac5c][NMeGly(cPent)][d(β3hA)][NMeL]I[NEtAla][Aze][NMePhe(4-Me)][Sar][hPhe(3-Cl-4-CF3)]P)) | 50 to 100
18 | CCCOC[C@H]1C(=O)N(C)CC(=O)N[C@@H](CCc2ccc(C(F)(F)F)c(F)c2)C(=O)N2CCC[C@H]2C(=O)NC2(CCCC2)C(=O)N(C)[C@@H](C2CCCC2)C(=O)N(C)[C@H](C(=O)N2CCCCC2)CC(=O)N(C)[C@@H](CC(C)C)C(=O)N[C@@H]([C@@H](C)CC)C(=O)N(C)[C@@H](C)C(=O)N2CC[C@H]2C(=O)N1C [Compound 1029] ([NMeL]I[NMeA][Aze][NMeS](Propyl)[Sar][hPhe(3-F,4-CF3)]P[Ac5c][NMeGly(cPent)][NMeD]-Piperidide; lactam N-11) | 20 to 50

— patent publication US12371454B2, “Cyclic peptide compound having Kras inhibitory action” (priority 2019, dated 2025)
